What all share (format): cell-based, human
The test system of one assay is CTCF. In words: PARlation status of CTCF, IP with anti-PAR antibody. The conditions noted are these: MDA-MB-435 cells, treated with 3-ABA for 24 hours. As to the method: As described above, CTCF may be important for maintaining an active p16 gene. To further investigate possible CTCF defects that may impact its function in p16-silenced T47D breast cancer cells, we examined its post-translational modifications and association with several known protein interaction partners. […] In addition, western blots were performed to determine the protein levels of CTCF and putative interacting partners in MDA-MB-435 and T47D cells (FIG. 4B). […] Moreover, PARP-1 and Nucleolin appear to associate with CTCF in a mutually exclusive manner, with Nucleolin being present in CTCF complexes only in p16 expressing cells. To explore this further, we examined the PARlation status of CTCF in each cell type using an antibody that recognizes ADP-ribose polymers (PAR). Unexpectedly, we found PARlation associated with both CTCF and Nucleolin in p16-expressing MDA-MB-435 cells but not in p16-silenced TD47 cells (FIG. 4D, upper panels). […] Inputs are equal to 2.5% starting material.
2 mg of whole cell lysates were diluted in IP buffer with 0.5% Triton X-100. Protein mixes were pre-cleared for 1-2 hours with protein G Sepharose, after which the beads were removed and CTCF (Upstate) or anto-phosphotyrosine (Upstate) antibody added overnight at 4° C. to capture complexes. Complexes were recovered with protein G Sepharose, washed 4 times in IP buffer and subsequently analyzed by SDS-PAGE.

Assay [1] concerns p16. The assay is described as follows: qPCR expression analysis of CTCF target gene p16 upon inhibition of PARP activity. To be noted: MDA-MB-435 cells, 24 hours, 5 mM 3-ABA, normalized to c-Myc. On the procedure:
(§1) Next, we examined whether PARlation of target proteins impacts the expression of CTCF-regulated tumor suppressor genes. To achieve this, we perturbed cellular PARlation activity in p16-expressing cells by two approaches: first, incubation with the broad-spectrum PARP inhibitor 3-ABA; and second, shRNA-mediated ablation of PARP-1. […] Results are normalized to c-Myc levels. Error bars represent ±standard deviation.
(§2) PARP-1 knockdown was achieved using the MISSION™ Lentiviral shRNA system from Sigma. Lentiviral particles were packaged in HEK293T cells, with virus collected 24 hours post-transfection. Cells infected with shRNA-containing virus and polybrene were selected using puromycin at 72 hours post infection.

Assay [2] has as its system RASSF1A. In words: qPCR expression analysis of CTCF target gene RASSF1A upon inhibition of PARP activity. The conditions noted are these: MDA-MB-435 cells, 24 hours, 5 mM 3-ABA, normalized to c-Myc. On the procedure:
as §1, §2
A general note: Quantitative PCR measures a nucleic acid by following its amplification.

The test system of assay [3] is p16. In words: Inhibition of transcription, RT-PCR of p16. The conditions noted are these: MDA-MB-435 cells, 24 hours, 2.5 μg/ml Actinomycin D or 1 μM Flavopiridol. From the text:
(§3) CTCF is a ubiquitous, multifunctional protein that has a critical role in organizing distinct chromosomal domains through boundary/insulator formation (Filippova et al. (2005) “Boundaries between chromosomal domains of X inactivation and escape bind CTCF and lack CpG methylation during early development.” Dev Cell 8: 31-42; Ishihara et al. (2006) “CTCF-dependent chromatin insulator is linked to epigenetic remodeling.” Mol Cell 23: 733-742; Splinter et al. (2006) “CTCF mediates long-range chromatin looping and local histone modification in the beta-globin locus.” Genes Dev 20: 2349-2354) and in repressing or activating transcription. Because we saw a pronounced change in chromatin structure upstream of the p16 gene when active or silenced (FIG. 1), we explored the possibility that CTCF can associate within this region. […] Yet, we detected CTCF binding at a well-characterized target gene, c-Myc, in both p16-expressing and non-expressing cell types. […] CTCF was immunoprecipitated and analyzed for association with the p16^INK4a and RASSF1A gene. […]
(§4) MDA-MB-435 cells were treated with Flavopiridol (Sigma) or Actinomycin D (Sigma) at 1 μM and 2.5 μg/ml, respectively, for 24 hours. At this time cells were harvested and analyzed for gene expression and CTCF binding.

In assay [4] the test system is RASSF1A. In words: Inhibition of transcription, RT-PCR of RASSF1A. The conditions noted are these: MDA-MB-435 cells, 24 hours, 2.5 μg/ml Actinomycin D or 1 μM Flavopiridol.
Excerpt: as §3, §4

The test system of the next assay is p16 gene. In words: p16 mRNA induction after AZA treatment (RT-PCR, qPCR). To be noted: T47D cells treated with both AZA and Trichostatin A. An excerpt:
The p16 tumor suppressor gene is commonly silenced in numerous types of human cancers and remains a relevant therapeutic target of wide interest. One method that is extensively employed to restore p16 expression, both clinically and in vitro, is treatment of cancer cells with hypomethylating-nucleoside analogues such as 5′AZA-2′-deoxycytidine (AZA) (Otterson et al. (1995) “CDKN2 gene silencing in lung cancer by DNA hypermethylation and kinetics of p16INK4 protein induction by 5-aza 2′ deoxycytidine.” Oncogene 11: 1211-1216; Schrump et al. (2006) “Phase I study of decitabine-mediated gene expression in patients with cancers involving the lungs, esophagus, or pleura.” Clin Cancer Res 12: 5777-5785), which reverses DNA methylation. We reasoned that treatment of cells with AZA might also restore CTCF binding at the p16 upstream promoter through one of two mechanisms. First, CTCF is known to bind DNA in a methylation-sensitive fashion (Hark et al. (2000) “CTCF mediates methylation-sensitive enhancer-blocking activity at the H19/Igf2 locus.” Nature 405: 486-489); thus, demethylation of the p16 locus might allow CTCF to reassociate. […]

Molecules are shown by their SMILES. Numbered stars: 1 amine (or outer) side, 2 acyl side, 3 side chain; on linkers, the order of the positions; unused ones are H or OH. Bridge positions count the residues as written; N and C are the ends. Square brackets hold non-standard residues; d marks the D form. Peptide text beside a SMILES is read from it. I, II: the chains in the order shown. Actinocin(9to1) = Cc1c2oc3c(C)ccc(C(=O)[*:1])c3nc-2c(C(=O)[*:2])c(N)c1=O; NMeV = CN[C@H](C(=O)O)C(C)C; Sar = CNCC(=O)O

Regarding `NC(=O)c1cccc(N)c1` [3-ABA, 3-Aminobenzamide], in the assay on CTCF, the “PARlation associated with CTCF and Nucleolin” value is “inhibited”. The “p16 mRNA levels” value in the assay with p16 [1] is on record as “significant reduction”. Further, the “RASSF1A mRNA levels” value in the assay with RASSF1A [2] is recorded as “dramatic decrease”.
Take `Cc1c2oc3c(C)ccc(C(=O)N[C@@H]4C(=O)N[C@H](C(C)C)C(=O)N5CCC[C@H]5C(=O)N(C)CC(=O)N(C)[C@@H](C(C)C)C(=O)O[C@@H]4C)c3nc-2c(C(=O)N[C@@H]2C(=O)N[C@H](C(C)C)C(=O)N3CCC[C@H]3C(=O)N(C)CC(=O)N(C)[C@@H](C(C)C)C(=O)O[C@@H]2C)c(N)c1=O` [Actinomycin D] (I: T[dV]P[Sar][NMeV] / II: T[dV]P[Sar][NMeV]; ester I:1-I:C, II:1-II:C; linker I:N-II:N via Actinocin(9to1)): the p16 transcription result in the assay on p16 [3] is on record as “inhibition”. Besides, the RASSF1A transcription entry with RASSF1A [4] was “inhibition”.
Regarding `CN1CC[C@H](c2c(O)cc(O)c3c(=O)cc(-c4ccccc4Cl)oc23)[C@H](O)C1` [Flavopiridol], the p16 transcription result in the assay with p16 [3] is on record as “inhibition”. Besides, in the assay on RASSF1A [4], the RASSF1A transcription result is on record as “inhibition”.
On to `CC(/C=C/C(=O)NO)=C\[C@@H](C)C(=O)c1ccc(N(C)C)cc1` [Trichostatin A], for which the “synergistic p16 gene reactivation” value with p16 gene is “No synergistic p16 gene reactivation”.

The record behind these values is patent US20100144543A1, “Epigenetic silencing of tumor suppressor genes” (The Salk Institute for Biological Studies, priority 2008, published 2010).
